Assay results taken from article PMC8188608 (Chemical Science, 2021).

Target: ΔmtDXPS (Mycobacterium tuberculosis, UniProt P9WNS3, D231G/I229G/K230G/L233G/S232G/S234G)
Type: binding

SMILES: O=C(CCCOc1ccc(Cl)cc1Cl)NCCc1ccc(O)cc1F [Compound 39]
- fold decrease in binding affinity for ΔmtDXPS: ~1.5 fold
